According to US10208033B2, “β-carboline, dihydro-β-carboline and tetrahydro-β-carboline alkaloid derivatives and preparation methods same and use in aspects of preventing and treating plant viruses, fungicides and insecticides” (NANKAI UNIVERSITY, priority 2013, dated 2019):
Where a name gives a salt, the structure may show the parent alone. Read-outs that look alike come from different tables or passages of the source.

Legend:
[1] = test system: tobacco mosaic virus (TMV); assay: Anti-TMV in vitro effect (half-leaf soaking); assay type: cell-based, tobacco mosaic virus (host Nicotiana tabacum L.cv.Xanthi NN)
[2] = test system: tobacco mosaic virus (TMV); assay: Anti-TMV in vivo inactivation; design: species or system tobacco mosaic virus (host Nicotiana tabacum L.cv.Xanthi NN)
[3] = test system: tobacco mosaic virus (TMV); assay: Anti-TMV in vivo therapeutic effect; design: species or system tobacco mosaic virus (host Nicotiana tabacum L.cv.Xanthi NN)
[4] = test system: tobacco mosaic virus (TMV); assay: Anti-TMV in vivo protective effect; design: species or system tobacco mosaic virus (host Nicotiana tabacum L.cv.Xanthi NN)
cucumber fusarium wilt = assay: Fungicidal (bactericidal) activity in vitro, PDA colony diameter; assay type: cell-based; conditions: 50 mg/kg
Cercospora arachidicola = assay: as above; assay type: cell-based; conditions: 50 mg/kg
Macrophoma kawatsukai = assay: as above; assay type: cell-based; conditions: 50 mg/kg
Alternaria solani = assay: as above; assay type: cell-based; conditions: 50 mg/kg
Fusarium graminearumt = assay: microbe, parasite or virus in culture; assay type: cell-based; conditions: 50 mg/kg
potato late blight = assay: microbe, parasite or virus in culture; assay type: cell-based
Sclerotinia scleotiorum = assay: Fungicidal (bactericidal) activity in vitro, PDA colony diameter; assay type: cell-based; conditions: 50 mg/kg
Botrytis cinerea = assay: as above; assay type: cell-based; conditions: 50 mg/kg
Rhizoctonia solani = assay: as above; assay type: cell-based; conditions: 50 mg/kg
Phytophthora capsici = assay: as above; assay type: cell-based; conditions: 50 mg/kg
Fusarium fujikuroi = assay: as above; assay type: cell-based; conditions: 50 mg/kg
Rhizoctonia cereali = assay: as above; assay type: cell-based; conditions: 50 mg/kg
Bipolaria maydis = assay: organism not typed; assay type: cell-based; conditions: 50 mg/kg
[5] = test system: Colletotrichum orbiculare; assay: Fungicidal (bactericidal) activity in vitro, PDA colony diameter; assay type: cell-based; conditions: 50 mg/kg
armyworms = assay type: in vivo; conditions: concentration 600 mg/kg
cotton bollworms = assay: whole plant or invertebrate; conditions: concentration 600 mg/kg
Experimental: Experimental method of cotton bollworms: feed and drug mixing method: measure 3 mL of prepared solution and add it to about 27 g of newly prepared feed, thereby obtaining needed concentration through dilution by 10 times.

mosquito larvae = assay: whole plant or invertebrate; conditions: 24 h
Procedure, shortened: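 Compound dissolved in acetone (or other solvent) to a 1000 ppm stock and diluted in water to 5 ppm. Ten Culex pipiens pallens larvae at the start of the fourth instar, laboratory-reared, added per beaker; solvent-only aqueous control.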

corn borers = conditions: concentration 600 mg/kg

Row | Compound | Relative inhibition rate (%) In vitro activity ([1]; treatment dose 100 μg/mL) [%] | Relative inhibition rate (%) In vitro activity ([1]; treatment dose 500 μg/mL) [%] | Relative inhibition rate (%) In vivo inactivation ([2]; treatment dose 100 μg/mL) [%] | Relative inhibition rate (%) In vivo inactivation ([2]; treatment dose 500 μg/mL) [%] | Relative inhibition rate (%) In vivo therapy ([3]; treatment dose 100 μg/mL) [%] | Relative inhibition rate (%) In vivo therapy ([3]; treatment dose 500 μg/mL) [%] | Relative inhibition rate (%) In vivo protection ([4]; treatment dose 100 μg/mL) [%] | Relative inhibition rate (%) In vivo protection ([4]; treatment dose 500 μg/mL) [%] | Bactericidal activity (%) Cucumber fusarium wilt (cucumber fusarium wilt) [%] | Bactericidal activity (%) Cercospora arachidicola (Cercospora arachidicola) [%] | Bactericidal activity (%) Macrophoma kawatsukai (Macrophoma kawatsukai) [%] | Bactericidal activity (%) Alternaria solani (Alternaria solani) [%] | Bactericidal activity (%) Fusarium graminearumt (Fusarium graminearumt) [%] | Bactericidal activity (%) Sclerotinia scleotiorum (Sclerotinia scleotiorum) [%] | Bactericidal activity (%) Botrytis cinerea (Botrytis cinerea) [%] | Bactericidal activity (%) Rhizoctonia solani (Rhizoctonia solani) [%] | Bactericidal activity (%) Phytophthora capsici (Phytophthora capsici) [%] | Bactericidal activity (%) Fusarium fujikuroi (Fusarium fujikuroi) [%] | Bactericidal activity (%) Rhizoctonia cereali (Rhizoctonia cereali) [%] | Bactericidal activity (%) Bipolaria maydis (Bipolaria maydis) [%] | other results
1 | CCOC(=O)c1cc2c([nH]c3ccccc32)c(C)n1 [Ia-10, 1-methyl-pyridino [3,4-b] indol-3-ethyl formate] | 0 | 33.3 | 0 | 26.3 | 0 | 28.8 | 0 | 23.7 | 23.8 | 35.7 | 52.9 | 61.1 | 71.4 | 68.0 | 13.6 | 39.3 | 51.5 | 35.7 | 78.1 | 36.8 | Bactericidal activity (%) potato late blight (potato late blight; 50 mg/kg): 35.0%; Bactericidal activity (%) Colletotrichum orbiculare [5]: 47.6%; Armyworm Mortality (%) (armyworms): 30%; Cotton bollworm Mortality (%) (cotton bollworms): 40%; Mosquito larvae Mortality (%) (mosquito larvae; concentration 10 mg/kg): 65%; Corn borer Mortality (%) (corn borers): 30%
2 | C[C@@H]1N[C@H](C(=O)NN=Cc2ccc([N+](=O)[O-])cc2)Cc2c1[nH]c1ccccc21 [Ic-4, (1S, 3S)—N′-(4-nitrobenzylidene)-1-methyl-2,3,4,9-tetrahydropyridino [3,4-b] indol-3-formylhydrazine] | 19.6 | 62.8 | 27.4 | 58.3 | 20.8 | 57.1 | 21.4 | 61.5 | 38.5 | 58.8 | 72.2 | 45.0 | 58.6 | 88.2 | 72.7 | 59.2 | 78.9 | 42.9 | 88.2 | 60.0 | Bactericidal activity (%) potato late blight (potato late blight): 52.0%; Bactericidal activity (%) Colletotrichum orbiculare [5]: 48.1%; Armyworm Mortality (%) (armyworms): 30%; Cotton bollworm Mortality (%) (cotton bollworms): 35%; Mosquito larvae Mortality (%) (mosquito larvae; concentration 10 mg/kg): 65%; Corn borer Mortality (%) (corn borers): 35%
3 | CCOC(=O)[C@H]1Cc2c([nH]c3ccccc23)[C@@H](C)N1 [Ib-12, (1R,3R)-1-methyl-2,3,4,9-tetrahydropyridino [3,4-b] indol-3-ethyl formate] | 12.6 | 40 | 16.7 | 35.8 | 12.9 | 38.6 | 17 | 41.9 | 19.2 | 92.3 | 54.8 | 26.3 | 26.2 | 17.7 | 24.2 | 42.1 | 9.4 | 28.6 | 39.5 | 18.2 | Bactericidal activity (%) potato late blight (potato late blight): 18.2%; Bactericidal activity (%) Colletotrichum orbiculare [5]: 25.0%; Armyworm Mortality (%) (armyworms): 50%; Cotton bollworm Mortality (%) (cotton bollworms): 30%; Mosquito larvae Mortality (%) (mosquito larvae; concentration 5 mg/kg): 40%; Mosquito larvae Mortality (%) (mosquito larvae; concentration 10 mg/kg): 100%; Corn borer Mortality (%) (corn borers): 50%
